{"source": "paper PMC5218480", "about": "(PLoS ONE, 2017)", "test_system": "MV-4-11 cells", "test": "Gene expression microarray analysis (Affymetrix PrimeView) and GSEA", "format": "cell-based, human", "set-up": "RFU PODN (11730768_x_at) / Fold change /veh PODN (11730768_x_at) / RFU LINC00158 (11744669_a_at) / Fold change /veh LINC00158 (11744669_a_at) / RFU DUSP10 (11751237_a_at) / Fold change /veh DUSP10 (11751237_a_at) / RFU ID3 (11757404_x_at) / Fold change /veh ID3 (11757404_x_at) / RFU PLEKHG5 (11737974_s_at) / Fold change /veh PLEKHG5 (11737974_s_at) / RFU LRRC4B (11730491_at) / Fold change /veh LRRC4B (11730491_at) / RFU GIMAP4 (11747438_a_at) / Fold change /veh GIMAP4 (11747438_a_at) / RFU KRT8 (11758183_x_at) / Fold change /veh KRT8 (11758183_x_at) / RFU CNN1 (11734310_a_at) / Fold change /veh CNN1 (11734310_a_at) / RFU VPS37D (11726825_at) / Fold change /veh VPS37D (11726825_at) / RFU C10orf10 (11716522_x_at) / Fold change /veh C10orf10 (11716522_x_at) / RFU KIR2DL2 /// KIR2DL4 /// KIR2DL5A /// KIR2DL5B /// KIR2DS1 /// KIR2DS2 /// KIR2DS3 /// KIR2DS4 /// KIR3DL3 /// KIR3DL3 /// KIR3DS1 (11738374_at) / Fold change /veh KIR2DL2 /// KIR2DL4 /// KIR2DL5A /// KIR2DL5B /// KIR2DS1 /// KIR2DS2 /// KIR2DS3 /// KIR2DS4 /// KIR3DL3 /// KIR3DL3 /// KIR3DS1 (11738374_at) / RFU C1QL1 (11718748_at) / Fold change /veh C1QL1 (11718748_at) / RFU TMPRSS4 (11747572_a_at) / Fold change /veh TMPRSS4 (11747572_a_at) / RFU HAMP (11756126_x_at) / Fold change /veh HAMP (11756126_x_at) / RFU RNFT2 (11725882_a_at) / Fold change /veh RNFT2 (11725882_a_at) / RFU NR4A2 (11747474_a_at) / Fold change /veh NR4A2 (11747474_a_at) / RFU ABCC12 (11746883_a_at) / Fold change /veh ABCC12 (11746883_a_at) / RFU TMEM136 (11760407_x_at) / Fold change /veh TMEM136 (11760407_x_at) / RFU CLDN22 /// WWC2 (11732394_at) / Fold change /veh CLDN22 /// WWC2 (11732394_at) / RFU HLA-DPB1 (11760878_x_at) / Fold change /veh HLA-DPB1 (11760878_x_at) / RFU SPINT1 (11716480_a_at) / Fold change /veh SPINT1 (11716480_a_at) / RFU GAP43 (11754022_s_at) / Fold change /veh GAP43 (11754022_s_at) / RFU A4GNT (11735810_at) / Fold change /veh A4GNT (11735810_at) / RFU PRB3 (11715151_x_at) / Fold change /veh PRB3 (11715151_x_at) / RFU TUBB4B (11761932_at) / Fold change /veh TUBB4B (11761932_at) / RFU CAPN14 (11732068_a_at) / Fold change /veh CAPN14 (11732068_a_at) / RFU TMCC2 (11721928_a_at) / Fold change /veh TMCC2 (11721928_a_at) / RFU IRGQ (11745062_a_at) / Fold change /veh IRGQ (11745062_a_at) / RFU FAM174B (11720279_a_at) / Fold change /veh FAM174B (11720279_a_at) / RFU TMPRSS4 (11748680_a_at) / Fold change /veh TMPRSS4 (11748680_a_at) / RFU FAM212B (11763350_a_at) / Fold change /veh FAM212B (11763350_a_at) / RFU PLEKHG5 (11743358_a_at) / Fold change /veh PLEKHG5 (11743358_a_at) / RFU ZSCAN30 (11745921_a_at) / Fold change /veh ZSCAN30 (11745921_a_at) / RFU CMKLR1 (11741424_a_at) / Fold change /veh CMKLR1 (11741424_a_at) / RFU LOC101060620 /// MAPK8IP1 (11723275_at) / Fold change /veh LOC101060620 /// MAPK8IP1 (11723275_at) / RFU SPTSSB (11747773_x_at) / Fold change /veh SPTSSB (11747773_x_at) / RFU PRSS12 (11739890_at) / Fold change /veh PRSS12 (11739890_at) / RFU BIN1 (11741810_x_at) / Fold change /veh BIN1 (11741810_x_at) / RFU WNT11 (11732464_a_at) / Fold change /veh WNT11 (11732464_a_at) / RFU C10orf10 (11716521_a_at) / Fold change /veh C10orf10 (11716521_a_at) / RFU C5orf56 (11738089_at) / Fold change /veh C5orf56 (11738089_at) / RFU CYB561 (11721691_x_at) / Fold change /veh CYB561 (11721691_x_at) / RFU ANKRD19P (11752326_a_at) / Fold change /veh ANKRD19P (11752326_a_at) / RFU OR2T12 /// OR2T33 /// OR2T8 (11738714_s_at) / Fold change /veh OR2T12 /// OR2T33 /// OR2T8 (11738714_s_at) / RFU VCAN (11748164_a_at) / Fold change /veh VCAN (11748164_a_at) / RFU JSRP1 (11732532_at) / Fold change /veh JSRP1 (11732532_at) / RFU KRTAP10-11 (11738290_x_at) / Fold change /veh KRTAP10-11 (11738290_x_at) / RFU MYO3A (11730013_a_at) / Fold change /veh MYO3A (11730013_a_at) / RFU EBF3 (11725865_a_at) / Fold change /veh EBF3 (11725865_a_at) / RFU CAMK2N1 (11719241_x_at) / Fold change /veh CAMK2N1 (11719241_x_at) / RFU C5orf56 (11738088_a_at) / Fold change /veh C5orf56 (11738088_a_at) / RFU OLFML3 (11715873_a_at) / Fold change /veh OLFML3 (11715873_a_at) / RFU LOC100653217 /// NTM (11731650_a_at) / Fold change /veh LOC100653217 /// NTM (11731650_a_at) / RFU MAPK11 (11762145_a_at) / Fold change /veh MAPK11 (11762145_a_at) / RFU FIZ1 (11724087_x_at) / Fold change /veh FIZ1 (11724087_x_at) / RFU OASL (11726364_x_at) / Fold change /veh OASL (11726364_x_at) / RFU SOX15 (11748057_x_at) / Fold change /veh SOX15 (11748057_x_at) / RFU CD79A (11719716_a_at) / Fold change /veh CD79A (11719716_a_at) / RFU HIST1H1D (11736915_at) / Fold change /veh HIST1H1D (11736915_at) / RFU CASKIN2 (11723855_a_at) / Fold change /veh CASKIN2 (11723855_a_at) / RFU LOC730098 (11760151_x_at) / Fold change /veh LOC730098 (11760151_x_at) / RFU OR4N2 (11742367_at) / Fold change /veh OR4N2 (11742367_at) / RFU PRRT2 (11749266_a_at) / Fold change /veh PRRT2 (11749266_a_at) / RFU SNX32 (11753110_a_at) / Fold change /veh SNX32 (11753110_a_at) / RFU CDHR5 (11726645_a_at) / Fold change /veh CDHR5 (11726645_a_at) / RFU RCAN1 (11760418_a_at) / Fold change /veh RCAN1 (11760418_a_at) / RFU FAM167A (11723789_a_at) / Fold change /veh FAM167A (11723789_a_at) / RFU FAM26E (11764081_at) / Fold change /veh FAM26E (11764081_at) / RFU ISYNA1 (11749810_s_at) / Fold change /veh ISYNA1 (11749810_s_at) / RFU ACY1 (11761880_at) / Fold change /veh ACY1 (11761880_at) / RFU 11764098_at / Fold change /veh 11764098_at / RFU SAMD14 (11745864_x_at) / Fold change /veh SAMD14 (11745864_x_at) / RFU NPB (11741838_a_at) / Fold change /veh NPB (11741838_a_at) / RFU TMPRSS6 (11731388_a_at) / Fold change /veh TMPRSS6 (11731388_a_at) / RFU KRTAP10-2 (11738614_at) / Fold change /veh KRTAP10-2 (11738614_at) / RFU ARHGAP8 /// PRR5-ARHGAP8 (11727945_x_at) / Fold change /veh ARHGAP8 /// PRR5-ARHGAP8 (11727945_x_at) / RFU KRTAP5-7 /// NADSYN1 (11734609_at) / Fold change /veh KRTAP5-7 /// NADSYN1 (11734609_at) / RFU RASL12 (11751679_a_at) / Fold change /veh RASL12 (11751679_a_at) / RFU CDKN2B (11736163_a_at) / Fold change /veh CDKN2B (11736163_a_at) / RFU PRF1 (11729649_at) / Fold change /veh PRF1 (11729649_at) / RFU, ZNF638 /// ZNF638-IT1 / Fold change vs veh, ZNF638 /// ZNF638-IT1 / RFU, PANK3 / Fold change vs veh, PANK3 / RFU, SH3YL1 / Fold change vs veh, SH3YL1 / RFU, ZEB2 / Fold change vs veh, ZEB2 / RFU, NRIP1 / Fold change vs veh, NRIP1 / RFU, PTTG1IP / Fold change vs veh, PTTG1IP / RFU, CAPN2 / Fold change vs veh, CAPN2 / RFU, MED14 / Fold change vs veh, MED14 / RFU, SNORA58 / Fold change vs veh, SNORA58 / RFU, C1orf63 / Fold change vs veh, C1orf63 / RFU, LRRFIP1 / Fold change vs veh, LRRFIP1 / RFU, NDUFAF7 / Fold change vs veh, NDUFAF7 / RFU, SLC12A2 / Fold change vs veh, SLC12A2 / RFU, IBTK / Fold change vs veh, IBTK / RFU, ESF1 / Fold change vs veh, ESF1 / Fold change vs veh, TMEM50B / RFU, TAOK1 / Fold change vs veh, TAOK1 / RFU, ACBD3 / Fold change vs veh, ACBD3 / RFU, TMA16 / Fold change vs veh, TMA16 / RFU, RWDD3 / Fold change vs veh, RWDD3 / RFU, BCAT1 / Fold change vs veh, BCAT1 / RFU, EDEM3 / Fold change vs veh, EDEM3 / RFU, TMEM33 / Fold change vs veh, TMEM33 / RFU, WDR75 / Fold change vs veh, WDR75 / RFU, AHCTF1 / Fold change vs veh, AHCTF1 / RFU, TFRC / Fold change vs veh, TFRC / RFU, ZDHHC17 / Fold change vs veh, ZDHHC17 / RFU, NOM1 / Fold change vs veh, NOM1 / RFU, ARL8B / Fold change vs veh, ARL8B / RFU, ZBTB11 / Fold change vs veh, ZBTB11 / RFU, TAMM41 / Fold change vs veh, TAMM41 / RFU, KIAA1704 /// LOC100996395 / Fold change vs veh, KIAA1704 /// LOC100996395 / RFU, ING1 / Fold change vs veh, ING1 / RFU, TRMT61B / Fold change vs veh, TRMT61B / RFU, FUBP3 / Fold change vs veh, FUBP3 / RFU, TP53 / Fold change vs veh, TP53 / RFU, TNKS2 / Fold change vs veh, TNKS2 / RFU, ZFP14 / Fold change vs veh, ZFP14 / RFU, ACTR2 / Fold change vs veh, ACTR2 / RFU, PPP3R1 / Fold change vs veh, PPP3R1 / RFU, PIK3R1 / Fold change vs veh, PIK3R1 / RFU, HNRNPA1 / Fold change vs veh, HNRNPA1 / RFU, RNF170 / Fold change vs veh, RNF170 / RFU, ZNF28 / Fold change vs veh, ZNF28 / RFU, RNGTT / Fold change vs veh, RNGTT / RFU, OGT / Fold change vs veh, OGT / RFU, BRD1 / Fold change vs veh, BRD1 / RFU, MARS / Fold change vs veh, MARS / RFU, ZNF655 / Fold change vs veh, ZNF655 / RFU, FAHD1 / Fold change vs veh, FAHD1 / RFU, BDP1 / Fold change vs veh, BDP1 / RFU, LRRCC1 / Fold change vs veh, LRRCC1 / RFU, ARID1A / Fold change vs veh, ARID1A / RFU, ZNF146 / Fold change vs veh, ZNF146 / RFU, ZNF330 / Fold change vs veh, ZNF330 / RFU, GPN3 / Fold change vs veh, GPN3 / RFU, C9orf123 / Fold change vs veh, C9orf123 / RFU, N4BP2L2 / Fold change vs veh, N4BP2L2 / RFU, ARFIP1 / Fold change vs veh, ARFIP1 / RFU, FAM179B / Fold change vs veh, FAM179B / RFU, BCL10 / Fold change vs veh, BCL10 / RFU, UHRF1BP1L / Fold change vs veh, UHRF1BP1L / RFU, BET1 / Fold change vs veh, BET1 / RFU, CNOT2 / Fold change vs veh, CNOT2 / RFU, ZNF268 / Fold change vs veh, ZNF268 / Fold change vs veh, ZNF507 / RFU, DGCR2 / Fold change vs veh, DGCR2 / RFU, WDSUB1 / Fold change vs veh, WDSUB1 / Fold change vs veh, HSP90B1 /// MIR3652 / RFU, ADSS / Fold change vs veh, ADSS / RFU, GK / Fold change vs veh, GK / RFU, ZNF148 / Fold change vs veh, ZNF148 / RFU, TAF9 / Fold change vs veh, TAF9 / RFU, SLC1A5 / Fold change vs veh, SLC1A5 / RFU, SLMO2 / Fold change vs veh, SLMO2 / RFU, ABCC4 / Fold change vs veh, ABCC4 / RFU, LOC101060439 /// RAP1B / Fold change vs veh, LOC101060439 /// RAP1B / RFU, RFX7 / Fold change vs veh, RFX7 / RFU, GTPBP10 / Fold change vs veh, GTPBP10 / RFU, CNEP1R1 / Fold change vs veh, CNEP1R1 / RFU, BIVM-ERCC5 /// ERCC5 / Fold change vs veh, BIVM-ERCC5 /// ERCC5 / RFU, ILF3 / Fold change vs veh, ILF3 / RFU 11762660_at / Fold change /veh 11762660_at / RFU VCAN (11757783_s_at) / Fold change /veh VCAN (11757783_s_at) / RFU DDX43 (11728927_at) / Fold change /veh DDX43 (11728927_at) / RFU KRT8 (11758188_x_at) / Fold change /veh KRT8 (11758188_x_at) / RFU NKD1 (11759106_at) / Fold change /veh NKD1 (11759106_at) / RFU SRD5A1 (11742802_a_at) / Fold change /veh SRD5A1 (11742802_a_at) / RFU TPSAB1 /// TPSB2 (11721975_s_at) / Fold change /veh TPSAB1 /// TPSB2 (11721975_s_at) / RFU GSTM3 (11746129_a_at) / Fold change /veh GSTM3 (11746129_a_at) / RFU IL23R (11737362_x_at) / Fold change /veh IL23R (11737362_x_at) / RFU TMEM51 (11727254_a_at) / Fold change /veh TMEM51 (11727254_a_at) / RFU PIWIL2 (11732686_x_at) / Fold change /veh PIWIL2 (11732686_x_at) / RFU ORM1 (11744905_x_at) / Fold change /veh ORM1 (11744905_x_at) / RFU CCDC152 (11743942_at) / Fold change /veh CCDC152 (11743942_at) / RFU ECM1 (11717891_a_at) / Fold change /veh ECM1 (11717891_a_at) / RFU IL23R (11748794_a_at) / Fold change /veh IL23R (11748794_a_at) / RFU TNFAIP8L3 (11732012_x_at) / Fold change /veh TNFAIP8L3 (11732012_x_at) / RFU MBOAT4 (11741988_at) / Fold change /veh MBOAT4 (11741988_at) / RFU 11764193_at / Fold change /veh 11764193_at / RFU TMEM53 (11763286_at) / Fold change /veh TMEM53 (11763286_at) / RFU MAGEB2 (11727129_at) / Fold change /veh MAGEB2 (11727129_at) / RFU TMEM200A (11744735_a_at) / Fold change /veh TMEM200A (11744735_a_at) / RFU CCDC152 (11751479_a_at) / Fold change /veh CCDC152 (11751479_a_at) / RFU FAM211A (11726209_a_at) / Fold change /veh FAM211A (11726209_a_at) / RFU RGS16 (11746705_a_at) / Fold change /veh RGS16 (11746705_a_at) / RFU VCAN (11755009_s_at) / Fold change /veh VCAN (11755009_s_at) / RFU RHOB (11743442_s_at) / Fold change /veh RHOB (11743442_s_at) / RFU RGS16 (11720943_a_at) / Fold change /veh RGS16 (11720943_a_at) / RFU RGS16 (11720944_at) / Fold change /veh RGS16 (11720944_at) / RFU, VPS4B / Fold change vs veh, VPS4B / RFU, CREB1 / Fold change vs veh, CREB1 / RFU, DNAJC13 / Fold change vs veh, DNAJC13 / RFU, GNAQ / Fold change vs veh, GNAQ / RFU, CDK5R1 / Fold change vs veh, CDK5R1 / RFU, ZRANB3 / Fold change vs veh, ZRANB3 / RFU, CUL4A / Fold change vs veh, CUL4A / RFU, CCNY / Fold change vs veh, CCNY / RFU, UFL1 / Fold change vs veh, UFL1 / RFU, COG3 / Fold change vs veh, COG3 / RFU, DIAPH2 / Fold change vs veh, DIAPH2 / RFU, SKA2 / Fold change vs veh, SKA2 / RFU, AFF3 / Fold change vs veh, AFF3 / RFU, LMF1 / Fold change vs veh, LMF1 / RFU, IPO11 / Fold change vs veh, IPO11 / RFU, DFFB / Fold change vs veh, DFFB / RFU, FOXP1 / Fold change vs veh, FOXP1 / RFU, CARD8 / Fold change vs veh, CARD8 / RFU, STRN3 / Fold change vs veh, STRN3 / RFU, ADK / Fold change vs veh, ADK / RFU, RASSF2 / Fold change vs veh, RASSF2 / RFU, WIPF1 / Fold change vs veh, WIPF1 / RFU, LARP1B / Fold change vs veh, LARP1B / RFU, RASA1 / Fold change vs veh, RASA1 / RFU, RB1 / Fold change vs veh, RB1 / RFU, PPFIA1 / Fold change vs veh, PPFIA1 / RFU, MAT2A / Fold change vs veh, MAT2A / RFU, CCT5 / Fold change vs veh, CCT5 / RFU, WDR92 / Fold change vs veh, WDR92 / RFU, CUX1 / Fold change vs veh, CUX1 / RFU, TTC7A / Fold change vs veh, TTC7A / RFU, TMEM135 / Fold change vs veh, TMEM135 / RFU, DEPTOR / Fold change vs veh, DEPTOR / RFU, CPM / Fold change vs veh, CPM / RFU, DNAJB6 / Fold change vs veh, DNAJB6 / RFU, CACNA2D3 / Fold change vs veh, CACNA2D3 / RFU, DTX4 / Fold change vs veh, DTX4 / RFU, TFCP2 / Fold change vs veh, TFCP2 / RFU, GMCL1 /// GMCL1P1 / Fold change vs veh, GMCL1 /// GMCL1P1 / RFU, AEBP2 / Fold change vs veh, AEBP2 / RFU, SNHG1 /// SNORD22 /// SNORD25 /// SNORD26 /// SNORD27 /// SNORD28 /// SNORD29 /// SNORD31 / Fold change vs veh, SNHG1 /// SNORD22 /// SNORD25 /// SNORD26 /// SNORD27 /// SNORD28 /// SNORD29 /// SNORD31 / Fold change (Aza/veh), C12orf56 (ProbeSet 11735607_a_at) / Fold change (ACY-1035/veh), C12orf56 (ProbeSet 11735607_a_at) / Fold change (Aza/veh), FGFR1OP (ProbeSet 11751329_s_at) / Fold change (ACY-1035/veh), FGFR1OP (ProbeSet 11751329_s_at) / Fold change (Aza/veh), VPS36 (ProbeSet 11739960_a_at) / Fold change (ACY-1035/veh), VPS36 (ProbeSet 11739960_a_at) / RFU SYPL1 (11715823_x_at) / Fold change /veh SYPL1 (11715823_x_at) / RFU IGFBP7 (11715501_s_at) / Fold change /veh IGFBP7 (11715501_s_at) / RFU REEP3 (11722064_at) / Fold change /veh REEP3 (11722064_at) / RFU IGLL1 (11728026_x_at) / Fold change /veh IGLL1 (11728026_x_at): dose or concentration left out as unconfirmed", "conditions": "ProbeSet 11721559_s_at; LIST B"}
{"smiles": "Nc1ccc(-c2cccs2)cc1NC(=O)c1ccc2c(c1)cc(C1CC1)n2CCN1CCOCC1", "note": "[ACY-1035]", "values": [{"measurement": "Fold change vs veh, ZNF638 /// ZNF638-IT1", "value": 0.85}]}
